# In article PMC7645366 (EMBO Molecular Medicine, 2020):
# Where “and” joins values, the source holds several entries; their conditions need not be identical. Equal entries are not always repeated. Where two headings read alike, the source gives them in different places. No end group written: not given here.
# Assays:
# PLY [1] = molecular target: T1, PLY (Streptococcus pneumoniae serotype 4, UniProt P0C2J9); format: binding
# SLO [2] = molecular target: T2, SLO (Streptococcus pyogenes serotype M1, UniProt P0C0I3); format: binding
# T2 sequence (P0C0I3 34-571 limits assumed): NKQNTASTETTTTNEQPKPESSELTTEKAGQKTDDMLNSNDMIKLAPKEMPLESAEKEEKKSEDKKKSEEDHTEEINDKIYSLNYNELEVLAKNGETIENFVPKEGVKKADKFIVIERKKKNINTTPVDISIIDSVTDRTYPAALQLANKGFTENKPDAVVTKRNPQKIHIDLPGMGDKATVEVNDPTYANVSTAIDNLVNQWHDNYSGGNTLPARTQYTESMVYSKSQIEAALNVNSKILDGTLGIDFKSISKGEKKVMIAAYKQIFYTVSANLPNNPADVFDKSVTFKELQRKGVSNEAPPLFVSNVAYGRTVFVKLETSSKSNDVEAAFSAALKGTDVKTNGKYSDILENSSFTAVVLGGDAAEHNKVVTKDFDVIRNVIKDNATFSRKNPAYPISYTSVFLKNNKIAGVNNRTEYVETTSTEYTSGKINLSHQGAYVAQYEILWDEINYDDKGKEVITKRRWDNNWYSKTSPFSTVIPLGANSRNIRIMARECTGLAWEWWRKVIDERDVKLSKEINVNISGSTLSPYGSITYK
# BSA = assay: ELISA, binding of plate-bound MRC-1 peptides to BSA (negative control); details: plate-bound peptide
# Method: Briefly, 96‐well flat‐bottomed plates (Sigma, UK) were coated overnight with 10 μM of MRC‐1 peptides in coating buffer (15 mM Na2CO3, 35 mM NaHCO3, pH 9.6). Wells were blocked with 200 μl of 10% (v/v) FBS in PBS for 2 h and then washed three times with PBS, 0.05% (v/v) Tween 20 (Sigma). 50 μl of purified PLY, LLO, and SLO (0–1 μM) in PBS was added and incubated at 37°C for 1 h. 1 μM BSA was added to control wells. Wells were washed with PBS and bound proteins were detected by adding 100 μl of mouse α‐PLY (1:1,000), mouse α‐SLO (1:400), and rabbit α‐LLO (1:1,500) (Abcam), respectively, in blocking buffer. Plates were incubated with 100 μl of secondary anti‐rabbit/anti‐mouse IgG HRP (1:2,000) dilution in blocking buffer. Bound antibodies were detected by adding 100 μl of tetramethylbenzidine substrate solution for 30 min. Phosphoric acid (1 M) was used as the stop solution and absorbance was measured at 450 nm.
# SLO [3] = molecular target: T2, SLO; format: cell-based
# S. pneumoniae strain T4 = assay: Hemolytic activity of whole bacteria, S. pneumoniae T4; format: cell-based, Streptococcus pneumoniae; details: 100 μM peptide
# Method: (§1) Human blood from anonymous healthy donors (obtained from Karolinska University Hospital) was diluted 1:100 in PBS with 0.5 mM DTT and mixed 1:1 with twofold serial dilutions of 10^8 CFUs of bacteria or 1 μg/ml purified bacterial toxins in 96‐well plates. The MRC‐1 peptides were serially diluted 10‐fold (1–1,000 μM) in PBS and added to the wells prior to addition of blood. The blood was co‐incubated with whole bacteria or purified toxins at 37°C for 1 h, and after 50 min, 0.1% triton X‐100 was added to the positive control wells. Cells were spun down at 400 g for 15 min and the absorbance of the supernatants was measured at 540 nm in a microplate reader. Percentage of lysis compared to the toxin alone was calculated. All samples were assayed in triplicates.
# S. pyogenes type M1T1 [4] = assay: Hemolytic activity of whole bacteria, S. pyogenes; format: cell-based, Streptococcus pyogenes; details: 100 μM peptide
# Method: All samples were assayed in triplicates.
# LLO [5] = molecular target: T3, LLO (Listeria monocytogenes serovar 1/2a, UniProt P13128); assay: LDH cytotoxicity assay, THP-1 macrophages, LLO; format: cell-based; details: 100 μM, 18 h; for % cytotoxicity relative to positive control (lysis buffer), LDH: THP-1, LLO 0.5 μg/ml
# T3 sequence (P13128 25-529): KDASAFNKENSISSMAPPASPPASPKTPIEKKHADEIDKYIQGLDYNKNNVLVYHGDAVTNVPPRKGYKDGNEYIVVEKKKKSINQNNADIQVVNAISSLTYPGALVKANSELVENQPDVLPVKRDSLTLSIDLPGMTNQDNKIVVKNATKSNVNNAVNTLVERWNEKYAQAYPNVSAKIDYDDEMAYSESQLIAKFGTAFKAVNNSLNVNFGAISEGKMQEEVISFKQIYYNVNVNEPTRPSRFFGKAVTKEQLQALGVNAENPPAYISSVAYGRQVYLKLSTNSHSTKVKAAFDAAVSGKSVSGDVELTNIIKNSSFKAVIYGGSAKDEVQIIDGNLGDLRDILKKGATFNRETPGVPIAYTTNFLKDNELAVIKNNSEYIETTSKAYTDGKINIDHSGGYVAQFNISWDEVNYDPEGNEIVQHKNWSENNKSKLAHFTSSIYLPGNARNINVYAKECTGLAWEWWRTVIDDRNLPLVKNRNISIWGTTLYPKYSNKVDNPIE
# Method: Human monocytic leukemia THP‐1 cells (ATCC TIB‐202) were cultivated in R10 medium and maintained at density of 10^6 cells/ml. For differentiation into macrophages, THP‐1 cells were treated for 48 h with 20 ng/ml of phorbol myristate acetate (Sigma).
# Cytotoxicity was determined by measuring the activity of lactate dehydrogenase enzyme released into the culture supernatant using the Cytotoxicity Detection kit (Roche) according to the manufacturer's instructions. The percentage cytotoxicity was calculated by ratio to 100% lysis control (0.1% saponin).
# PLY [6] = molecular target: T1, PLY; format: cell-based
# [7] = tested on: PLY‐producing pneumococcal strain T4; assay: Binding of FITC-labeled peptides to pneumococci, fluorescence microscopy; parameters: species or system Streptococcus pneumoniae
# PLY [8] = molecular target: T1, PLY; format: cell-based; remark: listed apart in the source
# PLY [9] = molecular target: T1, PLY; format: cell-based; remark: listed apart in the source
# PLY [10] = molecular target: T1, PLY; format: cell-based; remark: listed apart in the source
# S. pneumoniae T4 [11] = assay: Bacterial invasion assay, 3D lung epithelial models, CFU after gentamicin; format: cell-based, Streptococcus pneumoniae; details: for Mean Colonies at 100X dil, bacterial invasion of lung epithelium models / % entry bacteria= (bacteria uptaken/Input)*100: T4, MOI 10, 2h, 100 μM peptide
# S.pneumoniae T4R = assay: Co-localization of intracellular T4R with MRC-1 and LC3B in DCs; format: cell-based, Streptococcus pneumoniae; details: for % bacteria colocalized with MRC-1 / % bacteria colocalized with LC3B / number of bacteria (of n=50) colocalized with LC3B / number of bacteria (of n=50) colocalized with MRC-1: T4R in DCs
# S.pneumoniae T4RΔply = assay: Co-localization of intracellular T4RΔply with MRC-1 and LC3B in DCs; format: cell-based, Streptococcus pneumoniae; details: for % bacteria colocalized with MRC-1 / % bacteria colocalized with LC3B / number of bacteria (of n=50) colocalized with LC3B / number of bacteria (of n=50) colocalized with MRC-1: T4RΔply in DCs
# S. pyogenes type M1T1 [12] = assay: Co-localization of intracellular S. pyogenes with MRC-1 and LC3B in DCs; format: cell-based, Streptococcus pyogenes; details: 100 μM peptide
# S. pneumoniae T4 [13] = assay: Zebrafish embryo infection model, survival; format: in vivo, zebrafish (Danio renio); details: 500 CFU T4 microinjected into yolk sac, co-administration 1 nM
# Method: The AB strain of zebrafish embryos (Danio renio) was collected within first hours post‐fertilization (hpf) from the zebrafish core facility at Karolinska Institutet, Stockholm, and maintained at 28.5°C in E3 medium (5.0 mM NaCl, 0.17 mM KCl, 0.33 mM CaCl2, 0.33 mM MgSO4). […] Microinjection was done using a glass needle (Harvard apparatus, Quebec, Canada) controlled with a micromanipulator Narishige MN‐153 (Narishige International Limited, London, UK) connected to an Eppendorf FemtoJet express (Eppendorf AG, Hamburg, Germany). The injected volume was previously optimized by injecting of a droplet into mineral oil over a scale bar. The embryos were randomly assigned to the treatment groups and a minimum of 156 embryos/group was used. To determine the actual number of bacteria in the injected volume, one drop was collected into the agar plates, and 1–3 embryos were digested and plated just immediately after injection. The infected embryos were incubated at 30°C for 96 h. The infected embryos were monitored for disease symptoms and survival under a stereomicroscope twice a day up to 4 days post‐injection. Absence of heartbeat and movement was interpreted as a sign of death. All experiments were performed thrice.
# LC3B = format: cell-based, human
# PLY [14] = molecular target: T1, PLY; details: for % cytotoxicity relative to positive control (lysis buffer), LDH: 18 h
# SLO [15] = molecular target: T2, SLO
# LLO [16] = molecular target: T3, LLO; assay: Hemolysis assay with purified LLO; details: 1 μg/ml toxin
# Method: as §1
# T1 sequence (P0C2J9 whole entry, looked up): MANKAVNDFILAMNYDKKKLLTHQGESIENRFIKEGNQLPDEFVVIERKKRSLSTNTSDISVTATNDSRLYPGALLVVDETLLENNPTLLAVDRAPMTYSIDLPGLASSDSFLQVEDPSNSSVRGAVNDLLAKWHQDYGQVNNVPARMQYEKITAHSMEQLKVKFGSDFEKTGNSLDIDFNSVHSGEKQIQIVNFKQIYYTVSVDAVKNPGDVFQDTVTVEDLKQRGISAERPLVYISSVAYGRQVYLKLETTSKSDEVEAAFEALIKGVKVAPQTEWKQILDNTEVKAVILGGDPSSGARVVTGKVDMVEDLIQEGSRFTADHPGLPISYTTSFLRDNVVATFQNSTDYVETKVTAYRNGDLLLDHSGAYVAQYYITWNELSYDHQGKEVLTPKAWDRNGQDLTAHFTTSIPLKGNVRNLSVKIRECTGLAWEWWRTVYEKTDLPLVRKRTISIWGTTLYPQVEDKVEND
sequence,measurement,setting,value
FTWSDGSPVSYEN [P2],binding to PLY in ELISA,PLY [1],bind dose‐dependently
same,binding to SLO in ELISA,SLO [2],bound dose‐dependently
same,binding to BSA in ELISA,BSA,not to BSA
same,inhibition of hemolysis induced by purified SLO,SLO [3],up to 50%
same,IC50,"SLO [3]; read-out: ED50 (median effective dose) vs purified SLO, human, blood, 60 min",9.8 µM
same,hemolytic activity of pneumococcal strain T4,S. pneumoniae strain T4,significantly reduced
same,%hemolytic activity relative to positive control (0.1% Triton X),"S. pneumoniae strain T4; T4 312500 CFU/ml, experiment 1 of 3",-0.1%
same,%hemolytic activity relative to positive control (0.1% Triton X),"S. pneumoniae strain T4; T4 312500 CFU/ml, experiment 2 of 3",4%
same,%hemolytic activity relative to positive control (0.1% Triton X),"S. pneumoniae strain T4; T4 312500 CFU/ml, experiment 3 of 3",4.3%
same,%hemolytic activity relative to positive control (0.1% Triton X),"S. pneumoniae strain T4; T4 625000 CFU/ml, experiment 1 of 3",-0.4%
same,%hemolytic activity relative to positive control (0.1% Triton X),"S. pneumoniae strain T4; T4 625000 CFU/ml, experiment 2 of 3",4.5%
same,%hemolytic activity relative to positive control (0.1% Triton X),"S. pneumoniae strain T4; T4 625000 CFU/ml, experiment 3 of 3",4.7%
same,%hemolytic activity relative to positive control (0.1% Triton X),"S. pneumoniae strain T4; T4 12500000 CFU/ml, experiment 1 of 3",-0.7%
same,%hemolytic activity relative to positive control (0.1% Triton X),"S. pneumoniae strain T4; T4 12500000 CFU/ml, experiment 2 of 3",4.6%
same,%hemolytic activity relative to positive control (0.1% Triton X),"S. pneumoniae strain T4; T4 12500000 CFU/ml, experiment 3 of 3",4.6%
same,%hemolytic activity relative to positive control (0.1% Triton X),"S. pneumoniae strain T4; T4 25000000 CFU/ml, experiment 1 of 3",0.2%
same,%hemolytic activity relative to positive control (0.1% Triton X),"S. pneumoniae strain T4; T4 25000000 CFU/ml, experiment 2 of 3",4.4%
same,%hemolytic activity relative to positive control (0.1% Triton X),"S. pneumoniae strain T4; T4 25000000 CFU/ml, experiment 3 of 3",20%
same,%hemolytic activity relative to positive control (0.1% Triton X),"S. pneumoniae strain T4; T4 50000000 CFU/ml, experiment 1 of 3",15.6%
same,%hemolytic activity relative to positive control (0.1% Triton X),"S. pneumoniae strain T4; T4 50000000 CFU/ml, experiment 2 of 3",19.9%
same,%hemolytic activity relative to positive control (0.1% Triton X),"S. pneumoniae strain T4; T4 50000000 CFU/ml, experiment 3 of 3",19.6%
same,%hemolytic activity relative to positive control (0.1% Triton X),"S. pneumoniae strain T4; T4 100000000 CFU/ml, experiment 1 of 3",32%
same,%hemolytic activity relative to positive control (0.1% Triton X),"S. pneumoniae strain T4; T4 100000000 CFU/ml, experiment 2 of 3",30.8%
same,%hemolytic activity relative to positive control (0.1% Triton X),"S. pneumoniae strain T4; T4 100000000 CFU/ml, experiment 3 of 3",19.1%
same,hemolytic activity of S. pyogenes type M1T1,S. pyogenes type M1T1 [4],significantly reduced
same,"cell death of macrophages induced by LLO, LDH release","LLO [5]; THP-1, 0.5 μg/ml toxin",significantly reduced cell death
same,"% cytotoxicity relative to positive control (lysis buffer), LDH",LLO [5]; experiment 1 of 4,50.96%
same,"% cytotoxicity relative to positive control (lysis buffer), LDH",LLO [5]; experiment 2 of 4,55.95%
same,"% cytotoxicity relative to positive control (lysis buffer), LDH",LLO [5]; experiment 3 of 4,54.18%
same,"% cytotoxicity relative to positive control (lysis buffer), LDH",LLO [5]; experiment 4 of 4,52.24%
same,cytolysis by PLY in live imaging,PLY [6],protection from cytolysis
same,binding of FITC-labeled peptide to PLY mutant T4Δply,[7]; fluorescence microscopy,not to the PLY‐deficient strain
same,binding of FITC-labeled peptide to pneumococcal strain T4,[7]; fluorescence microscopy,bound to T4
same,binding of FITC-labelled peptide to capsular mutant strain T4R,"[7]; response to reviewers, Figure 4",binds to T4R
same,"release of IL‐8, TNF‐α and IL‐12 by THP-1 macrophages, PLY",PLY [8],significantly reduced
same,loss of GFP expression in 3D lung epithelial model,PLY [9],significantly lower
same,release of IL‐8 and TNF‐α in lung tissue model,PLY [10],significantly reduced release
same,number of invading bacteria in 3D lung epithelial model,"S. pneumoniae T4 [11]; T4, 100 μM peptide, 2 h",significantly reduced
same,"Mean Colonies at 100X dil, bacterial invasion of lung epithelium models",S. pneumoniae T4 [11]; biological replicate n=1,13.3
same,% entry bacteria= (bacteria uptaken/Input)*100,S. pneumoniae T4 [11]; n=1,2.25%
same,% entry bacteria= (bacteria uptaken/Input)*100,S. pneumoniae T4 [11]; n=2,2.59%
same,"Mean Colonies at 100X dil, bacterial invasion of lung epithelium models",S. pneumoniae T4 [11]; n=2,15.3
same,% entry bacteria= (bacteria uptaken/Input)*100,S. pneumoniae T4 [11]; n=3,2.54%
same,"Mean Colonies at 100X dil, bacterial invasion of lung epithelium models",S. pneumoniae T4 [11]; n=3,15
same,co-localization of intracellular T4R with MRC‐1 and LC3B,"S.pneumoniae T4R; DCs, 100 μM peptide","did not co‐localize with MRC‐1, but co‐stained with LC3B"
same,% bacteria colocalized with MRC-1,"S.pneumoniae T4R; MOI 10, 100 μM peptide, n=50 bacteria, experiment 1 of 2",30%
same,% bacteria colocalized with LC3B,S.pneumoniae T4R; experiment 1 of 2,70%
same,number of bacteria (of n=50) colocalized with LC3B,S.pneumoniae T4R; experiment 1 of 2,35
same,number of bacteria (of n=50) colocalized with MRC-1,S.pneumoniae T4R; experiment 1 of 2,15
same,% bacteria colocalized with LC3B,S.pneumoniae T4R; experiment 2 of 2,76%
same,% bacteria colocalized with MRC-1,S.pneumoniae T4R; experiment 2 of 2,24%
same,number of bacteria (of n=50) colocalized with LC3B,S.pneumoniae T4R; experiment 2 of 2,38
same,number of bacteria (of n=50) colocalized with MRC-1,S.pneumoniae T4R; experiment 2 of 2,12
same,co-localization of T4RΔply in DCs,"S.pneumoniae T4RΔply; DCs, 100 μM peptide, MOI 10, 2 h",had no effect
same,% bacteria colocalized with MRC-1,"S.pneumoniae T4RΔply; 100 μM peptide, n=50 bacteria, experiment 1 of 2",6%
same,% bacteria colocalized with LC3B,S.pneumoniae T4RΔply; experiment 1 of 2,94%
same,number of bacteria (of n=50) colocalized with LC3B,S.pneumoniae T4RΔply; experiment 1 of 2,47
same,number of bacteria (of n=50) colocalized with MRC-1,S.pneumoniae T4RΔply; experiment 1 of 2,3
same,% bacteria colocalized with LC3B,S.pneumoniae T4RΔply; experiment 2 of 2,92%
same,% bacteria colocalized with MRC-1,S.pneumoniae T4RΔply; experiment 2 of 2,8%
same,number of bacteria (of n=50) colocalized with LC3B,S.pneumoniae T4RΔply; experiment 2 of 2,46
same,number of bacteria (of n=50) colocalized with MRC-1,S.pneumoniae T4RΔply; experiment 2 of 2,4
same,co-staining of intracellular S. pyogenes M1T1 with LC3B,S. pyogenes type M1T1 [12],co‐stained with LC3B
same,survival of infected zebrafish embryos,S. pneumoniae T4 [13],significantly improved the survival
same,"expression of LC3B-I and LC3B-II, western blotting",LC3B,induced higher expression
same,"cell death of macrophages induced by PLY, LDH release",PLY [14],significantly reduced cell death
same,"% cytotoxicity relative to positive control (lysis buffer), LDH",PLY [14]; 100 μM,50.12% and 52.81% and 49.35%
same,"% cytotoxicity relative to positive control (lysis buffer), LDH",PLY [14],52.47%
same,"cell death of macrophages induced by SLO, LDH release",SLO [15],significantly reduced cell death
same,inhibition of hemolysis induced by purified LLO,LLO [16]; at concentrations ranging from 10 to 100 μM,up to 50%
same,IC50,"LLO [16]; read-out: ED50 (median effective dose) vs purified LLO, hemolysis, regression analysis",22.3 µM
